For data set [1] the following is noted: highly dilute conditions (~5 mM), pH 7.5, in vitro (ref. 19); cited from earlier work.
Data set [2] addresses T1, VLA-4 expressing B16-F10 cells (Mus musculus, UniProt P09055+Q00651).
T1 construct: endogenous in cells; host or cells: B16-F10 murine melanoma cells
The data set can be described thus: In vitro saturation binding assay on B16-F10 cells. The protocol: Saturation binding assay. In vitro binding saturation assays were performed on B16-F10 cells following published procedures (n=3).(28) Cells were grown to near-confluence on 24 well poly-D-lysine plates. Growth media was removed, and reaction media (RPMI, 1% BSA, 100 U/mL penicillin/streptomycin) was added and allowed to incubate for at least 1 h at 37° C. Increasing concentrations (5 pM to 20 nM) of [^18F]6 were added to the cells and incubated for 1 h at 25° C. with mild agitation. Non-specific binding was determined by repeating the described incubations with [^18F]6 while simultaneously adding 1 (10 μM). After incubation, cells were washed twice with ice-cold PBS, harvested following incubation with trypsin, and measured for radioactivity using a WIZARD 2480 gamma counter (PerkinElmer). Values from the non-specific binding assays were subtracted from the respective values of the specific binding assays. Dissociation constants (Kd'S) were determined using GraphPad PRISM 7 with a one-site specific binding model.

Data set [3] relates to B16-F10 tumor-bearing mice. Further details: species or system mice (male C57BL/6J). Particulars: mouse, in vivo. As for the experimental part: PET/CT imaging studies were carried out on a microPET/CT scanner (Inveon, Siemens). Briefly, for static PET scans, each tumor bearing mouse was injected with 4-6 MBq of F-18 labeled […]3-DOTA via the caudal lateral tail vein under isoflurane sedation. For blocking study, mice were co-injected with 100 μg of non-radioactive […]3-DOTA. After injection, the mice were allowed to recover and roam freely in their cages. After 50 min, the mice were sedated again and positioned in the scanner. A baseline CT scan was obtained for localization and attenuation correction. This was followed by a 10 min static PET scan. The mice were kept warm by a heating pad during acquisition. The mice were euthanized using CO2 inhalation after static PET imaging followed by biodistribution. The PET images were reconstructed using the ordered subset expectation maximization and maximum a posteriori algorithm (OSEM3D/MAP), using 2 OSEM3D iterations followed by 18 MAP iterations, with a requested resolution of 1.5 mm. […] For static PET scans (recorded for 10 min), mice were first injected with 4-6 MBq of ([^18F]6) via the tail vein while anesthetized with 2% isoflurane and were subjected to baseline CT scans (recorded for 10 min) prior to PET imaging. […] Dynamic PET scans involved the described anesthesia, injection of 4-6 MBq of [^18F]6, baseline CT scans, and PET scans recorded from 5 sec. to 52.5 min p.i. […]

Data set [4] relates to B16-F10 tumor-bearing mice. It is filed as in vivo, mice (male C57BL/6J). Further details: Reduction of accumulation in the spleen by co-injection of 1 / Reduction of accumulation in the intestines by co-injection of 1 / Reduction of accumulation in the lungs by co-injection of 1 / Reduction of accumulation in bone & marrow by co-injection of 1 / Reduction of accumulation in the tumor by co-injection of 1: concentration or dose not given beside the values. As for the experimental part: All animal experiments were conducted according to the guidelines established by Canadian Council on Animal Care and approved by Animal Ethics Committee of the University of British Columbia. Mice were housed under pathogen-free conditions and kept on twelve-hour light and dark cycles in the Animal Resource Centre of BC Cancer Research Centre, Vancouver, Canada. PET imaging and biodistribution studies were performed using male C57BL/6J mice. For tumor implantation, mice were anesthetized by inhalation with 2% isoflurane in 2.0 L/min of oxygen, and 1×10^6 B16F10 cells were implanted subcutaneously on the right back at the level of the forelimbs. Mice were imaged or used in biodistribution studies once the tumor grew to reach 8-10 mm in diameter in 8-10 days. Mice for biodistribution study only were anesthetized by 2% isoflurane inhalation, and injected with 1-2 MBq of F-18 labeled […]3-DOTA. For blocking studies, 100 μg of non-radioactive […]3-DOTA was co-injected with the radioactive compound. After injection, the mice were allowed to recover and roam freely in their cages, and euthanized by CO2 inhalation 1 h later. Blood was promptly withdrawn, and the organs of interest were harvested, rinsed with 1×PBS (pH 7.4), and blotted dry. Each organ was weighed and the radioactivity of the collected tissue was measured using a WIZARD 2480 (PerkinElmer), normalized to the injected dose using a standard curve and expressed as the percentage of the injected dose per gram of tissue (% ID/g). Biodistribution of DOTA-[^18[…]]6) in B16-F10 tumor-bearing mice. Mice were anesthetized using 2% isoflurane and injected with 2-3 MBq of [^18F]6 via the tail vein. For competitive VLA-4 blocking studies, 200 μg of 1 was co-injected with 2-3 MBq of [^18F]6. At 1 h p.i., mice were euthanized by CO2 (g) inhalation, blood was collected, and the organs were excised. After rinsing and drying the samples, organs were weighed, their radioactivity was recorded using a Wallac WIZARD2 gamma counter (PerkinElmer), and values were expressed as % ID/g for each organ. Two-tailed ANOVA Sidak's multiple comparison tests (GraphPad PRISM) were used to evaluate statistical significance between the biodistribution of [^18F]6 alone compared with competitive blocking of VLA-4 by co-injections of 1.

Data set [5] has as its system mice bearing PSMA-expressing LNCaP prostate cancer xenografts. Further details: species or system mice (NODSCID 1L2RγKO male). Particulars: mouse, in vivo. The protocol: Imaging and biodistribution experiments were performed using NODSCID 1L2RγKO male mice. The mice were maintained and the experiments were conducted in according to the guidelines established by Canadian Council on Animal Care and approved by Animal Ethics Committee of the University of British Columbia. Mice were anesthetized by inhalation with 2% isoflurane in oxygen, and implanted subcutaneously with 1×10^7 LNCaP cells behind left shoulder. Mice were imaged or used in biodistribution studies when the tumor grew up to reach 5-8 mm in diameter during 5-6 weeks. For biodistribution studies, the mice were injected with the radiotracer as described above. For blocking, the mice were co-injected with non-radioactive DCFPyL (0.5 mg). After 1 hour, the mice were anesthetized with 2% isoflurane inhalation, and euthanized by CO2 inhalation. Blood was withdrawn immediately from the heart, and the organs/tissues of interest were collected. The collected organs/tissues were weighed and counted using an automatic gamma counter. The uptake in each organ/tissue was normalized to the injected dose using a standard curve, and expressed as % ID/g.

Here are results for four molecules from patent US12427209B2, “Dual mode 18F-labelled theranostic compounds and uses thereof” (Provincial Health Services Authority, priority 2018, dated 2025).

Broadly, the Kd is a measure of binding affinity in units of concentration.

T1 sequence (Q00651 41-1039): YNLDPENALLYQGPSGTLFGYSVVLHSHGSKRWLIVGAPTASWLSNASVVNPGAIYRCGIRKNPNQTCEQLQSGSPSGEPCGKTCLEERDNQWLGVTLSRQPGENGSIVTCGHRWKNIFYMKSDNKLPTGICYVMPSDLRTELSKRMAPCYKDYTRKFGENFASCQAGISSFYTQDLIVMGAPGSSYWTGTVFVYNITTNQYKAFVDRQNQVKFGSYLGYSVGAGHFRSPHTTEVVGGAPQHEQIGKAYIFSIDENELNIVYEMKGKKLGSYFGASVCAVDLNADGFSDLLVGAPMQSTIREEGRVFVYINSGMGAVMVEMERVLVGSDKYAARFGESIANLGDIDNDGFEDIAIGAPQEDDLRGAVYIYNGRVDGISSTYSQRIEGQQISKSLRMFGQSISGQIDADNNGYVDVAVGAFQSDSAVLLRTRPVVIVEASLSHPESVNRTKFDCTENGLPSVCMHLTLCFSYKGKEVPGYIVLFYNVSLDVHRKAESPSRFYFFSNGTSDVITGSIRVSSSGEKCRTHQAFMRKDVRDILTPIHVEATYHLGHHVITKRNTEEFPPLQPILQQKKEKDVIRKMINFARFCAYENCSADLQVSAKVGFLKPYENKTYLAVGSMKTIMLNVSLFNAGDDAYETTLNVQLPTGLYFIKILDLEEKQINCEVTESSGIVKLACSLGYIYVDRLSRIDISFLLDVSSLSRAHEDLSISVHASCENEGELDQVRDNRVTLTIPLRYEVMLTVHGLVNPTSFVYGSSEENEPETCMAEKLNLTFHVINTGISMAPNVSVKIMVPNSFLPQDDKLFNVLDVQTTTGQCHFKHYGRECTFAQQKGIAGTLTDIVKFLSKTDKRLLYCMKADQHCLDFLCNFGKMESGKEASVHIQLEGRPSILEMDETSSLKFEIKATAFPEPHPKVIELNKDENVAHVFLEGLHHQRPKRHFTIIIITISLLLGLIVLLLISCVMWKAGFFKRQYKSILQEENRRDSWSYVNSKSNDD
T1 sequence (P09055 21-798): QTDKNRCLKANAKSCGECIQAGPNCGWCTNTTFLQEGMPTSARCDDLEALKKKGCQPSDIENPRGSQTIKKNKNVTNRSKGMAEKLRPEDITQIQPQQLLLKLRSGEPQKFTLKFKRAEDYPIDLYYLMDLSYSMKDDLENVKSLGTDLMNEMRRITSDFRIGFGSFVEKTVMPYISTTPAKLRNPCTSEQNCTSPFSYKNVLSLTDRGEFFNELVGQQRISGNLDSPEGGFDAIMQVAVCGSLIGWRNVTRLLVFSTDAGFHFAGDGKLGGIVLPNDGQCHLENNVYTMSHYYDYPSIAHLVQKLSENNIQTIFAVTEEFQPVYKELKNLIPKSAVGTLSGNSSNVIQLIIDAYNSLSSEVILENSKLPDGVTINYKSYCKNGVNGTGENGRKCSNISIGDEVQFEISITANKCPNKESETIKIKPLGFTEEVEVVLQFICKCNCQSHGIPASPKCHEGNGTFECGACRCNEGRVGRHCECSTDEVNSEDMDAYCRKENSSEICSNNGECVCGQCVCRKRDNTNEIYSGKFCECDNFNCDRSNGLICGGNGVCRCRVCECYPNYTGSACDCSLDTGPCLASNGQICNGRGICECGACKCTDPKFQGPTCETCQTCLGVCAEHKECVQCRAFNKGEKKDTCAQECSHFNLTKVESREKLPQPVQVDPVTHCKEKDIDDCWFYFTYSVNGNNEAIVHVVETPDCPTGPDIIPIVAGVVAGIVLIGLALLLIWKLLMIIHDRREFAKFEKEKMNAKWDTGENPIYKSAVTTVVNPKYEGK

Take `C#CC[N+](C)(C)C[B-](F)(F)F` [compound 7, N-propargyl-N,N-dimethyl-ammoniomethyl-trifluoroborate]: the “Loss of free fluoride (hydrolytic stability)” value in data set [1] is given as “very slow, first order rate”.
Consider DOTA-AMBF3-PEG2-LLP2A [compound 6], for which the “Kd relative to Kd values of other [^18F]RBF3-PEG2-LLP2A conjugates (fold higher)” value in data set [2] (comparison with earlier conjugates) is given as “at least 5 fold”. Further, in data set [2] (saturation binding of [^18F]6, B16-F10 cells, 1 h at 25° C., n=3), binding was characterised by a dissociation constant (Kd) of 6.9 ± 0.59 nM.
Consider DOTA-[^18F]AMBF3-PEG2-LLP2A [[^18F]6], for which, in data set [3], the “Time of initial perfusion and first pass through the liver (dynamic PET)” value is reported as at most 4 min p.i; the “Time to uptake in the tumor (dynamic PET)” value is at most 1.9 min p.i. In addition, in data set [4] (1 h p.i., p<0.0001), the “Lowering of tumor-to-blood contrast by VLA-4 blocking” value was 85%, the “Lowering of tumor-to-muscle contrast by VLA-4 blocking” value is listed as 92%, the “Reduction of accumulation in bone & marrow by co-injection of 1” value came to 78% and the “Reduction of accumulation in the lungs by co-injection of 1” value came to 85%. Moreover, in data set [4] (1 h p.i., p<0.0001), the “Reduction of accumulation in the spleen by co-injection of 1” value came to 88% and the “Reduction of accumulation in the tumor by co-injection of 1” value is reported as 75%. Also, in data set [4] (1 h p.i., p<0.05), the “Reduction of accumulation in the intestines by co-injection of 1” value was determined as 43%. Besides, in data set [4] (mouse, in vivo), the “Reduction of accumulation in the intestines compared to previously investigated [^18F]RBF3-PEG2-LLP2A's” value is listed as about 10 fold, the “Tumor-to-tissue ratio Tumor: Bone & Marrow” value amounted to 1.98 ± 0.78 and the “Tumor-to-tissue ratio Tumor: Kidney” value is on record as 2.22 ± 0.60.
Turning to “^18F-PSMA-617-LysAMBF3-DOTA [F-18 labeled PSMA-617-Lys-AMBF3-DOTA]”, in data set [5], the Tumor/Blood baseline was found to be 14.19 ± 3.85, the Tumor/Kidney baseline is listed as 0.09 ± 0.03 and the Tumor/Muscle baseline is reported as 41.55 ± 10.83.
